Toxic doses and inconclusive results are not listed.

Among the data in PubChem BioAssay AID248 (DTP/NCI, 2004) are T/C values, retold here.

This test concerns L1210 leukemia ip in BDF1 mice, survival T/C. Put plainly: NCI In Vivo Anticancer Drug Screen. Data for tumor model L1210 Leukemia (intraperitoneal) in B6D2F1 (BDF1) mice. Conditions: endpoint: mean survival time, higher = longer survival. The procedure, abridged: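 Tumor was transplanted into mice, which were then dosed with test compound or vehicle alone. Survival was recorded for each group, and the treated figure was expressed relative to the control figure.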

Setting [1] is: dose: 100.0 mg/kg/injection, schedule: Q04DX003 (ip), vehicle: Klucel (hydroxypropylcellulose) (HPC).
Setting [2] is: dose: 200.0 mg/kg/injection, schedule: Q04DX003 (ip), vehicle: Klucel (hydroxypropylcellulose) (HPC).
Setting [3] is: dose: 400.0 mg/kg/injection, schedule: Q04DX003 (ip), vehicle: Klucel (hydroxypropylcellulose) (HPC).
The mark [4] stands for this setting: dose: 100.0 mg/kg/injection, schedule: Q01DX001 (ip), vehicle: Klucel (hydroxypropylcellulose) (HPC).
The mark [5] stands for this setting: dose: 200.0 mg/kg/injection, schedule: Q01DX001 (ip), vehicle: Klucel (hydroxypropylcellulose) (HPC).
[6] abbreviates: dose: 100.0 mg/kg/injection, schedule: Q04DX002 (ip), vehicle: Klucel (hydroxypropylcellulose) (HPC).
The mark [7] stands for this setting: dose: 200.0 mg/kg/injection, schedule: Q04DX002 (ip), vehicle: Klucel (hydroxypropylcellulose) (HPC).
The mark [8] stands for this setting: dose: 400.0 mg/kg/injection, schedule: Q04DX002 (ip), vehicle: Klucel (hydroxypropylcellulose) (HPC).
The mark [9] stands for this setting: dose: 50.0 mg/kg/injection, schedule: Q04DX003 (ip), vehicle: Klucel (hydroxypropylcellulose) (HPC).
Setting [10] is: dose: 50.0 mg/kg/injection, schedule: Q01DX001 (ip), vehicle: saline.
[11] abbreviates: dose: 100.0 mg/kg/injection, schedule: Q01DX001 (ip), vehicle: saline.
[12] abbreviates: dose: 200.0 mg/kg/injection, schedule: Q01DX001 (ip), vehicle: saline.
Setting [13] is: dose: 400.0 mg/kg/injection, schedule: Q01DX001 (ip), vehicle: saline.

For `CN1CCC(C=C2c3ccccc3Sc3ccccc32)C1` (stereo not given), the T/C is, setting by setting: (dose: 8.0 mg/kg/injection, schedule: Q01DX015 (ip), vehicle: carboxymethylcellulose (CMC)) 110 % of control; (dose: 16.0 mg/kg/injection, schedule: Q01DX015 (ip), vehicle: carboxymethylcellulose (CMC)) 102 % of control; (dose: 32.0 mg/kg/injection, schedule: Q01DX015 (ip), vehicle: carboxymethylcellulose (CMC)) 96 % of control; (dose: 64.0 mg/kg/injection, schedule: Q01DX015 (ip), vehicle: carboxymethylcellulose (CMC)) 98 % of control.

On to `CCCCCCCCCCCCNc1c(OCC)c(=O)c1=O`, for which the T/C under setting [1] was 88 % of control, the T/C under setting [2] was 91 % of control and the T/C under setting [3] is 93 % of control.

With `COc1ccc(/C=N/NC(=O)CNC(=O)c2ccc(Cl)c(Cl)c2)cc1`, the T/C (dose: 12.5 mg/kg/injection, schedule: Q01DX009 (ip), vehicle: saline with Tween-80) was 104 % of control.

Take `O=c1c2c([nH]c3ccccc13)CCCC2`: the T/C is, setting by setting: under setting [4], 97 % of control; under setting [1], 97 % of control; under setting [5], 88 % of control; under setting [2], 94 % of control; (dose: 400.0 mg/kg/injection, schedule: Q01DX001 (ip), vehicle: Klucel (hydroxypropylcellulose) (HPC)) 93 % of control; under setting [3], 101 % of control.

Regarding `S=C(Nc1ccc(Cl)cc1)Nc1ccc(-c2ccc(NC(=S)Nc3ccc(Cl)cc3)cc2)cc1`, the T/C reads like this: under setting [6], 107 % of control; under setting [7], 100 % of control; under setting [8], 89 % of control.

On to `CC(C)(C)c1nc2cc(Cl)c(Cl)cc2[nH]1`, for which the T/C was 102 % of control (dose: 75.0 mg/kg/injection, schedule: Q01DX001 (ip), vehicle: other); 96 % of control (dose: 75.0 mg/kg/injection, schedule: Q01DX009 (ip), vehicle: saline with Tween-80); 103 % of control (dose: 75.0 mg/kg/injection, schedule: Q04DX003 (ip), vehicle: saline with Tween-80); 96 % of control (dose: 150.0 mg/kg/injection, schedule: Q01DX001 (ip), vehicle: other); 90 % of control (dose: 150.0 mg/kg/injection, schedule: Q01DX009 (ip), vehicle: saline with Tween-80); 110 % of control (dose: 150.0 mg/kg/injection, schedule: Q04DX003 (ip), vehicle: saline with Tween-80). Moreover, the T/C by setting is: (dose: 300.0 mg/kg/injection, schedule: Q01DX001 (ip), vehicle: other) 109 % of control; (dose: 300.0 mg/kg/injection, schedule: Q01DX009 (ip), vehicle: saline with Tween-80) 103 % of control; (dose: 300.0 mg/kg/injection, schedule: Q04DX003 (ip), vehicle: saline with Tween-80) 107 % of control.

On to `CC1(C)N=C(N)N=C(N)N1c1ccc(OCCOc2ccc(S(=O)(=O)F)cc2)c(Cl)c1`, for which the T/C reads like this: (dose: 33.0 mg/kg/injection, schedule: Q04DX003 (ip), vehicle: Klucel (hydroxypropylcellulose) (HPC)) 102 % of control; (dose: 33.0 mg/kg/injection, schedule: Q04DX003 (ip), vehicle: saline sonified) 117 % of control; (dose: 50.0 mg/kg/injection, schedule: Q01DX009 (ip), vehicle: saline sonified) 152 % of control; under setting [9], 112 % of control; (dose: 75.0 mg/kg/injection, schedule: Q04DX003 (ip), vehicle: Klucel (hydroxypropylcellulose) (HPC)) 112 % of control; (dose: 75.0 mg/kg/injection, schedule: Q04DX003 (ip), vehicle: saline sonified) 113 % of control. Moreover, the T/C reads like this: (dose: 100.0 mg/kg/injection, schedule: Q01DX009 (ip), vehicle: saline sonified) 109 % of control; (dose: 100.0 mg/kg/injection, schedule: Q04DX003 (ip), vehicle: other) 96 % of control; (dose: 200.0 mg/kg/injection, schedule: Q04DX003 (ip), vehicle: other) 103 % of control; (dose: 400.0 mg/kg/injection, schedule: Q04DX003 (ip), vehicle: other) 96 % of control.

For `CCOC(=O)C1(C)Nc2ccc3ccccc3c2NC1=O` (stereo not given), the T/C runs as follows: under setting [6], 93 % of control; under setting [7], 101 % of control; under setting [8], 101 % of control.

Consider `COc1ccc(NC(=O)NNC(=O)CCCC(=O)NNC(=O)Nc2ccc(OC)cc2)cc1`, for which the T/C is, setting by setting: under setting [10], 112 % of control; under setting [11], 102 % of control; under setting [12], 93 % of control; under setting [13], 93 % of control.

With `CC(=O)OC(c1ccccc1)C1CCCCC1N1CCCCC1` (stereo not given), the T/C is 95 % of control under setting [4] and 96 % of control under setting [5].

For `O=C(Oc1ccccc1Cl)c1ccccc1`, the T/C (dose: 100.0 mg/kg/injection, schedule: Q01DX009 (ip), vehicle: saline with Tween-80) was 113 % of control and the T/C (dose: 200.0 mg/kg/injection, schedule: Q01DX009 (ip), vehicle: saline with Tween-80) was 116 % of control.

In the case of `C[N+](C)(Cc1ccccc1)C1c2ccccc2-c2ccccc21`, the T/C is 109 % of control (dose: 0.5 mg/kg/injection, schedule: Q04DX002 (ip), vehicle: Klucel (hydroxypropylcellulose) (HPC)); 109 % of control (dose: 1.0 mg/kg/injection, schedule: Q04DX002 (ip), vehicle: Klucel (hydroxypropylcellulose) (HPC)); 109 % of control (dose: 2.0 mg/kg/injection, schedule: Q04DX002 (ip), vehicle: Klucel (hydroxypropylcellulose) (HPC)).

Turning to `O=C(O)C1OC1(c1ccccc1Cl)c1ccccc1Cl` (stereo not given), the T/C was 101 % of control under setting [10], 95 % of control under setting [11], 98 % of control under setting [12] and 104 % of control under setting [13].

With `O=[N+]([O-])c1cccc2c(Br)cccc12`, the T/C (dose: 100.0 mg/kg/injection, schedule: Q01DX009 (ip), vehicle: saline) is 106 % of control; the T/C (dose: 100.0 mg/kg/injection, schedule: Q04DX003 (ip), vehicle: saline) is 103 % of control; the T/C (dose: 200.0 mg/kg/injection, schedule: Q01DX009 (ip), vehicle: saline) was 95 % of control; the T/C (dose: 200.0 mg/kg/injection, schedule: Q04DX003 (ip), vehicle: saline) was 100 % of control; the T/C (dose: 400.0 mg/kg/injection, schedule: Q01DX009 (ip), vehicle: saline) is 95 % of control; the T/C (dose: 400.0 mg/kg/injection, schedule: Q04DX003 (ip), vehicle: saline) is 106 % of control.

Regarding `Nc1c(Cl)cc(C(=O)NC2CC2)cc1Cl`, the T/C runs as follows: (dose: 6.25 mg/kg/injection, schedule: Q01DX009 (ip), vehicle: Klucel (hydroxypropylcellulose) (HPC)) 103 % of control; (dose: 12.5 mg/kg/injection, schedule: Q01DX009 (ip), vehicle: Klucel (hydroxypropylcellulose) (HPC)) 94 % of control; (dose: 25.0 mg/kg/injection, schedule: Q01DX009 (ip), vehicle: Klucel (hydroxypropylcellulose) (HPC)) 92 % of control; (dose: 25.0 mg/kg/injection, schedule: Q04DX003 (ip), vehicle: Klucel (hydroxypropylcellulose) (HPC)) 104 % of control; (dose: 50.0 mg/kg/injection, schedule: Q01DX009 (ip), vehicle: Klucel (hydroxypropylcellulose) (HPC)) 97 % of control; under setting [9], 98 % of control. Besides, the T/C runs as follows: (dose: 100.0 mg/kg/injection, schedule: Q01DX009 (ip), vehicle: Klucel (hydroxypropylcellulose) (HPC)) 100 % of control; under setting [1], 104 % of control.

As to `O=C(OCC(F)(F)C(F)(F)C(F)(F)C(F)F)c1ccccc1C(=O)OCC(F)(F)C(F)(F)C(F)(F)C(F)F`, the T/C was 91 % of control (dose: 50.0 mg/kg/injection, schedule: Q01DX001 (ip), vehicle: carboxymethylcellulose (CMC)); 107 % of control (dose: 100.0 mg/kg/injection, schedule: Q01DX001 (ip), vehicle: carboxymethylcellulose (CMC)); 105 % of control (dose: 200.0 mg/kg/injection, schedule: Q01DX001 (ip), vehicle: carboxymethylcellulose (CMC)); 94 % of control (dose: 400.0 mg/kg/injection, schedule: Q01DX001 (ip), vehicle: carboxymethylcellulose (CMC)).

For the molecule `CCN(C(=O)c1ccc(C(=O)N(CC)c2ccccc2)cc1)c1ccccc1`, the T/C is 96 % of control (dose: 100.0 mg/kg/injection, schedule: Q04DX003 (ip), vehicle: saline with Tween-80); 91 % of control (dose: 200.0 mg/kg/injection, schedule: Q04DX003 (ip), vehicle: saline with Tween-80); 91 % of control (dose: 400.0 mg/kg/injection, schedule: Q04DX003 (ip), vehicle: saline with Tween-80).
